Assay results from PubChem BioAssay (NCI).
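All cell lines were grown in 96-well plates and treated with compound for 48 hours. GI50 is the concentration that inhibits growth by half. The concentration for full growth arrest is given as TGI.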

What was measured:
Assay in all cases: growth of human tumour cells (NCI), 48 h
UACC-257 melanoma = tested on: UACC-257 melanoma
HL-60(TB) leukemia = tested on: HL-60(TB) leukemia
HS 578T breast = tested on: HS 578T breast
SK-MEL-28 melanoma = tested on: SK-MEL-28 melanoma
COLO 205 colon = tested on: COLO 205 colon
HCC-2998 colon = tested on: HCC-2998 colon
SF-268 CNS = tested on: SF-268 CNS
SK-MEL-2 melanoma = tested on: SK-MEL-2 melanoma
ACHN renal = tested on: ACHN renal
LOX IMVI melanoma = tested on: LOX IMVI melanoma
HCT-15 colon = tested on: HCT-15 colon
T-47D breast = tested on: T-47D breast
SK-MEL-5 melanoma = tested on: SK-MEL-5 melanoma
TK-10 renal = tested on: TK-10 renal
NCI-H226 lung = tested on: NCI-H226 lung
MDA-MB-435 = tested on: MDA-MB-435
K-562 leukemia = tested on: K-562 leukemia
DU-145 prostate = tested on: DU-145 prostate
SK-OV-3 ovarian = tested on: SK-OV-3 ovarian
SW-620 colon = tested on: SW-620 colon
EKVX NSCLC = tested on: EKVX NSCLC
HT29 colon = tested on: HT29 colon
UO-31 renal = tested on: UO-31 renal
M14 melanoma = tested on: M14 melanoma
A498 renal = tested on: A498 renal
OVCAR-8 ovarian = tested on: OVCAR-8 ovarian
CAKI-1 renal = tested on: CAKI-1 renal
786-0 renal = tested on: 786-0 renal
OVCAR-3 ovarian = tested on: OVCAR-3 ovarian
NCI/ADR-RES ovarian = tested on: NCI/ADR-RES ovarian
RPMI-8226 leukemia = tested on: RPMI-8226 leukemia
KM12 colon = tested on: KM12 colon
SNB-75 CNS = tested on: SNB-75 CNS
NCI-H522 lung = tested on: NCI-H522 lung
MCF7 breast = tested on: MCF7 breast
SF-539 CNS = tested on: SF-539 CNS
BT-549 breast = tested on: BT-549 breast
SNB-19 CNS = tested on: SNB-19 CNS
NCI-H23 lung = tested on: NCI-H23 lung
MDA-MB-231 breast = tested on: MDA-MB-231 breast
SR leukemia = tested on: SR leukemia
A549 NSCLC = tested on: A549 NSCLC
SN12C renal = tested on: SN12C renal
SF-295 CNS = tested on: SF-295 CNS
IGROV1 ovarian = tested on: IGROV1 ovarian
OVCAR-5 ovarian = tested on: OVCAR-5 ovarian
HOP-92 NSCLC = tested on: HOP-92 NSCLC
HCT-116 colon = tested on: HCT-116 colon
PC-3 prostate = tested on: PC-3 prostate
MOLT-4 leukemia = tested on: MOLT-4 leukemia
U251 CNS = tested on: U251 CNS
NCI-H460 lung = tested on: NCI-H460 lung
UACC-62 melanoma = tested on: UACC-62 melanoma
OVCAR-4 ovarian = tested on: OVCAR-4 ovarian
RXF 393 renal = tested on: RXF 393 renal
HOP-62 NSCLC = tested on: HOP-62 NSCLC

COC(=O)[C@]1(C)CCC[C@@]2(C)C3=C(CC[C@H]12)C[C@@H](CC(OC(C)=O)OC(C)=O)[C@@H](C)C3
GI50 (UACC-257 melanoma): 10.1 µM | TGI (UACC-257 melanoma): 19.7 µM | GI50 (HL-60(TB) leukemia): 14.4 µM | TGI (HL-60(TB) leukemia): > 50 µM | GI50 (HS 578T breast): 10.9 µM | TGI (HS 578T breast): 23 µM | GI50 (SK-MEL-28 melanoma): 11.5 µM | TGI (SK-MEL-28 melanoma): 24.5 µM | GI50 (COLO 205 colon): 11 µM | TGI (COLO 205 colon): 27.4 µM | GI50 (HCC-2998 colon): 9.32 µM | TGI (HCC-2998 colon): 16.3 µM | GI50 (SF-268 CNS): 7.85 µM | TGI (SF-268 CNS): 16.9 µM | GI50 (SK-MEL-2 melanoma): 15.9 µM | TGI (SK-MEL-2 melanoma): > 37.4 µM | GI50 (ACHN renal): 13.9 µM | TGI (ACHN renal): > 28.2 µM | GI50 (LOX IMVI melanoma): > 50 µM | TGI (LOX IMVI melanoma): > 50 µM | GI50 (HCT-15 colon): 15.4 µM | TGI (HCT-15 colon): > 40.7 µM | GI50 (T-47D breast): 4.17 µM | TGI (T-47D breast): 13.7 µM | GI50 (SK-MEL-5 melanoma): 8.4 µM | TGI (SK-MEL-5 melanoma): 15.6 µM | GI50 (TK-10 renal): 13.5 µM | TGI (TK-10 renal): 27.2 µM | GI50 (NCI-H226 lung): 11.2 µM | TGI (NCI-H226 lung): 31.1 µM | GI50 (MDA-MB-435): 9.96 µM | TGI (MDA-MB-435): 20.5 µM | GI50 (K-562 leukemia): 14.7 µM | TGI (K-562 leukemia): > 50 µM | GI50 (DU-145 prostate): 10.4 µM | TGI (DU-145 prostate): 23.3 µM | GI50 (SK-OV-3 ovarian): 20.7 µM | TGI (SK-OV-3 ovarian): > 50 µM | GI50 (SW-620 colon): 11 µM | TGI (SW-620 colon): 22.7 µM | GI50 (EKVX NSCLC): 11.7 µM | TGI (EKVX NSCLC): 23.9 µM | GI50 (HT29 colon): 18 µM | TGI (HT29 colon): > 50 µM | GI50 (UO-31 renal): 10.6 µM | TGI (UO-31 renal): 24.8 µM | GI50 (M14 melanoma): 11.1 µM | TGI (M14 melanoma): 20 µM | GI50 (A498 renal): 11.5 µM | TGI (A498 renal): 19.9 µM | GI50 (OVCAR-8 ovarian): 10.2 µM | TGI (OVCAR-8 ovarian): 20.5 µM | GI50 (CAKI-1 renal): 8.73 µM | TGI (CAKI-1 renal): 18.2 µM | GI50 (786-0 renal): 8.97 µM | TGI (786-0 renal): 17.2 µM | GI50 (OVCAR-3 ovarian): 10.7 µM | TGI (OVCAR-3 ovarian): 27.9 µM | GI50 (NCI/ADR-RES ovarian): 8.95 µM | TGI (NCI/ADR-RES ovarian): 16.3 µM | GI50 (RPMI-8226 leukemia): 5.23 µM | TGI (RPMI-8226 leukemia): 27.7 µM | GI50 (KM12 colon): 10.1 µM | TGI (KM12 colon): 22.6 µM | GI50 (SNB-75 CNS): 14.1 µM | TGI (SNB-75 CNS): 30.5 µM | GI50 (NCI-H522 lung): > 28 µM | TGI (NCI-H522 lung): > 50 µM | GI50 (MCF7 breast): 7.99 µM | TGI (MCF7 breast): 18.5 µM | GI50 (SF-539 CNS): 10.7 µM | TGI (SF-539 CNS): 20.3 µM | GI50 (BT-549 breast): 12.8 µM | TGI (BT-549 breast): 25.2 µM | GI50 (SNB-19 CNS): 13.5 µM | TGI (SNB-19 CNS): 32.1 µM | GI50 (NCI-H23 lung): 9.15 µM | TGI (NCI-H23 lung): 16.7 µM | GI50 (MDA-MB-231 breast): 8.81 µM | TGI (MDA-MB-231 breast): 19.2 µM | GI50 (SR leukemia): 11.2 µM | TGI (SR leukemia): > 50 µM | GI50 (A549 NSCLC): 15.4 µM | TGI (A549 NSCLC): > 43.6 µM | GI50 (SN12C renal): 9.42 µM | TGI (SN12C renal): 20.6 µM | GI50 (SF-295 CNS): 11 µM | TGI (SF-295 CNS): 26.7 µM | GI50 (IGROV1 ovarian): 14.5 µM | TGI (IGROV1 ovarian): > 37.1 µM | GI50 (OVCAR-5 ovarian): 9.89 µM | TGI (OVCAR-5 ovarian): 18.4 µM | GI50 (HOP-92 NSCLC): 9.95 µM | TGI (HOP-92 NSCLC): 19.9 µM | GI50 (HCT-116 colon): 8.21 µM | TGI (HCT-116 colon): 18.9 µM | GI50 (PC-3 prostate): 11.4 µM | TGI (PC-3 prostate): > 29 µM | GI50 (MOLT-4 leukemia): 18.5 µM | TGI (MOLT-4 leukemia): > 50 µM | GI50 (U251 CNS): 13.4 µM | TGI (U251 CNS): > 28.9 µM | GI50 (NCI-H460 lung): 9.2 µM | TGI (NCI-H460 lung): 25.3 µM | GI50 (UACC-62 melanoma): 8.82 µM | TGI (UACC-62 melanoma): 19.4 µM | GI50 (OVCAR-4 ovarian): 14.4 µM | TGI (OVCAR-4 ovarian): 47.4 µM | GI50 (RXF 393 renal): 7.03 µM | TGI (RXF 393 renal): 16.1 µM | GI50 (HOP-62 NSCLC): 11.3 µM | TGI (HOP-62 NSCLC): 23.4 µM
